± gives the standard deviation of the averaged measurements.
What was measured:
Conditions in all cases: exposure time: 72 h
[1] = tested on: E28 (patient-derived glioblastoma stem cells of classical subtype); experiment: phenotypic distance (Euclidean, principal components) from DMSO controls (arbitrary units); higher = stronger morphological change
[2] = tested on: E34 (patient-derived glioblastoma stem cells of proneural subtype); experiment: as above
[3] = tested on: E31 (patient-derived glioblastoma stem cells of proneural subtype); experiment: as above
[4] = tested on: E13 (patient-derived glioblastoma stem cells of classical subtype); experiment: as above
[5] = tested on: E57 (patient-derived glioblastoma stem cells of mesenchymal subtype); experiment: as above
[6] = tested on: E21 (patient-derived glioblastoma stem cells of mesenchymal subtype); experiment: as above
[7] = tested on: FT3469 (normal neural stem cell line); experiment: as above
[8] = tested on: E28; experiment: surviving fraction (nuclei count normalised to DMSO); higher = more cells surviving (less toxic)
[9] = tested on: E34; experiment: as above
[10] = tested on: E31; experiment: as above
[11] = tested on: E13; experiment: as above
[12] = tested on: E57; experiment: as above
[13] = tested on: E21; experiment: as above
[14] = tested on: FT3469; experiment: as above
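Wherever phenotypic distance (Euclidean, principal components) from DMSO controls is given: cell Painting imaging in 384-well plates, CellProfiler features reduced to at least 20 principal components, Euclidean distance versus same-plate DMSO vehicle wells (0.1% v/v), median over six images per well.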
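Wherever surviving fraction (nuclei count normalised to DMSO) is given: nuclei counted by high-content imaging of Hoechst-stained cells in laminin-coated 384-well plates, relative to 0.1% DMSO vehicle wells, with staurosporine as cell-death control.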

O=C(O)c1ccc(-c2c[nH]c3ncc(-c4ccccc4)cc23)cc1C1CCCC1
Conditions	phenotypic distance	surviving fraction
[1], 4.11523 nM	0.635	–
[1], 12.34567901 nM	0.785	–
[1], 37.037 nM	0.418	–
[1], 111.1111111 nM	0.61	–
[1], 333.333 nM	0.687	–
[1], 1000 nM	1.26	–
[1], 3000 nM	2.4	–
[2], 4.11523 nM	1.13	–
[2], 12.34567901 nM	0.775	–
[2], 37.037 nM	0.829	–
[2], 111.1111111 nM	1.03	–
[2], 333.333 nM	1.12	–
[2], 1000 nM	2.9	–
[2], 3000 nM	4.8	–
[3], 4.11523 nM	0.443	–
[3], 12.34567901 nM	0.638	–
[3], 37.037 nM	0.948	–
[3], 111.1111111 nM	0.662	–
[3], 333.333 nM	1.08	–
[3], 1000 nM	1.15	–
[3], 3000 nM	1.91	–
[4], 4.11523 nM	3.86	–
[4], 12.34567901 nM	2.38	–
[4], 37.037 nM	0.747	–
[4], 111.1111111 nM	0.749	–
[4], 333.333 nM	1	–
[4], 1000 nM	2.77	–
[4], 3000 nM	5.39	–
[5], 4.11523 nM	0.657	–
[5], 12.34567901 nM	0.719	–
[5], 37.037 nM	0.687	–
[5], 111.1111111 nM	1.04	–
[5], 333.333 nM	0.598	–
[5], 1000 nM	1.78	–
[5], 3000 nM	4.38	–
[6], 4.11523 nM	0.656	–
[6], 12.34567901 nM	0.914	–
[6], 37.037 nM	0.757	–
[6], 111.1111111 nM	0.832	–
[6], 333.333 nM	0.828	–
[6], 1000 nM	1.75	–
[6], 3000 nM	4.49	–
[7], 4.11523 nM	0.839	–
[7], 12.34567901 nM	1.18	–
[7], 37.037 nM	0.627	–
[7], 111.1111111 nM	1.11	–
[7], 333.333 nM	0.969	–
[7], 1000 nM	1.71	–
[7], 3000 nM	2.49	–
[8], 4.11523 nM	–	0.956
[8], 12.34567901 nM	–	0.911
[8], 37.037 nM	–	0.873
[8], 111.1111111 nM	–	1.01
[8], 333.333 nM	–	0.807
[8], 1000 nM	–	0.755
[8], 3000 nM	–	0.51
[9], 4.11523 nM	–	0.913
[9], 12.34567901 nM	–	1.06
[9], 37.037 nM	–	0.86
[9], 111.1111111 nM	–	0.909
[9], 333.333 nM	–	0.805
[9], 1000 nM	–	0.714
[9], 3000 nM	–	0.527
[10], 4.11523 nM	–	1.04
[10], 12.34567901 nM	–	1.01
[10], 37.037 nM	–	0.885
[10], 111.1111111 nM	–	1.14
[10], 333.333 nM	–	0.798
[10], 1000 nM	–	1.04
[10], 3000 nM	–	0.688
[11], 4.11523 nM	–	0.996
[11], 12.34567901 nM	–	0.826
[11], 37.037 nM	–	0.899
[11], 111.1111111 nM	–	0.825
[11], 333.333 nM	–	0.72
[11], 1000 nM	–	0.588
[11], 3000 nM	–	0.413
[12], 4.11523 nM	–	0.932
[12], 12.34567901 nM	–	0.905
[12], 37.037 nM	–	0.923
[12], 111.1111111 nM	–	0.916
[12], 333.333 nM	–	0.835
[12], 1000 nM	–	0.6
[12], 3000 nM	–	0.35
[13], 4.11523 nM	–	0.933
[13], 12.34567901 nM	–	0.832
[13], 37.037 nM	–	0.918
[13], 111.1111111 nM	–	0.783
[13], 333.333 nM	–	0.803
[13], 1000 nM	–	0.681
[13], 3000 nM	–	0.52
[14], 4.11523 nM	–	0.822
[14], 12.34567901 nM	–	0.943
[14], 37.037 nM	–	0.972
[14], 111.1111111 nM	–	0.987
[14], 333.333 nM	–	0.813
[14], 1000 nM	–	0.996
[14], 3000 nM	–	0.766

OC[C@H]1NC[C@H](O)[C@@H](O)[C@@H]1O [1-Deoxynojirimycin]
Conditions	phenotypic distance	surviving fraction
[1], 4.1 nM	1.27 ± 1.1	–
[1], 12.3 nM	1.73 ± 1.8	–
[1], 37 nM	0.489 ± 0.0059	–
[1], 111.1 nM	0.561 ± 0.14	–
[1], 333.3 nM	0.769 ± 0.13	–
[1], 1000 nM	0.642 ± 0.045	–
[1], 3000 nM	0.664 ± 0.026	–
[2], 4.1 nM	1.35 ± 1.2	–
[2], 12.3 nM	0.664 ± 0.15	–
[2], 37 nM	0.60231 ± 0.00028	–
[2], 111.1 nM	0.433 ± 0.24	–
[2], 333.3 nM	0.758 ± 0.14	–
[2], 1000 nM	0.619 ± 0.093	–
[2], 3000 nM	0.541 ± 0.065	–
[3], 4.1 nM	0.644 ± 0.29	–
[3], 12.3 nM	0.558 ± 0.24	–
[3], 37 nM	0.579 ± 0.015	–
[3], 111.1 nM	0.597 ± 0.2	–
[3], 333.3 nM	0.552 ± 0.28	–
[3], 1000 nM	0.479 ± 0.03	–
[3], 3000 nM	0.614 ± 0.078	–
[4], 4.1 nM	0.633 ± 0.14	–
[4], 12.3 nM	0.606 ± 0.04	–
[4], 37 nM	0.865 ± 0.041	–
[4], 111.1 nM	0.487 ± 0.12	–
[4], 333.3 nM	0.742 ± 0.2	–
[4], 1000 nM	0.501 ± 0.13	–
[4], 3000 nM	0.63 ± 0.088	–
[5], 4.1 nM	0.636 ± 0.055	–
[5], 12.3 nM	0.609 ± 0.089	–
[5], 37 nM	0.696 ± 0.18	–
[5], 111.1 nM	0.505 ± 0.21	–
[5], 333.3 nM	0.518 ± 0.12	–
[5], 1000 nM	0.442 ± 0.3	–
[5], 3000 nM	0.63 ± 0.071	–
[6], 4.1 nM	0.765 ± 0.32	–
[6], 12.3 nM	0.361 ± 0.018	–
[6], 37 nM	0.681 ± 0.079	–
[6], 111.1 nM	0.62 ± 0.23	–
[6], 333.3 nM	0.677 ± 0.17	–
[6], 1000 nM	0.652 ± 0.047	–
[6], 3000 nM	0.534 ± 0.12	–
[7], 4.1 nM	0.939 ± 0.66	–
[7], 12.3 nM	0.685 ± 0.061	–
[7], 37 nM	0.554 ± 0.023	–
[7], 111.1 nM	0.511 ± 0.058	–
[7], 333.3 nM	0.634 ± 0.0044	–
[7], 1000 nM	0.682 ± 0.016	–
[7], 3000 nM	0.673 ± 0.011	–
[8], 4.1 nM	–	1.02 ± 0.069
[8], 12.3 nM	–	1.01 ± 0.028
[8], 37 nM	–	1.009 ± 0.0082
[8], 111.1 nM	–	1.05 ± 0.0041
[8], 333.3 nM	–	1.04 ± 0.058
[8], 1000 nM	–	0.997 ± 0.015
[8], 3000 nM	–	1.02 ± 0.2
[9], 4.1 nM	–	1.02 ± 0.077
[9], 12.3 nM	–	0.878 ± 0.018
[9], 37 nM	–	0.9719 ± 0.0051
[9], 111.1 nM	–	0.948 ± 0.018
[9], 333.3 nM	–	0.937 ± 0.05
[9], 1000 nM	–	0.997 ± 0.12
[9], 3000 nM	–	1.02 ± 0.033
[10], 4.1 nM	–	0.951 ± 0.052
[10], 12.3 nM	–	0.95 ± 0.018
[10], 37 nM	–	0.979 ± 0.065
[10], 111.1 nM	–	0.918 ± 0.12
[10], 333.3 nM	–	0.988 ± 0.094
[10], 1000 nM	–	1.03 ± 0.059
[10], 3000 nM	–	0.988 ± 0.18
[11], 4.1 nM	–	0.97 ± 0.11
[11], 12.3 nM	–	0.945 ± 0.013
[11], 37 nM	–	0.8513 ± 0.0051
[11], 111.1 nM	–	0.99 ± 0.11
[11], 333.3 nM	–	1.01 ± 0.18
[11], 1000 nM	–	1.01 ± 0.13
[11], 3000 nM	–	0.963 ± 0.07
[12], 4.1 nM	–	0.9939 ± 0.0068
[12], 12.3 nM	–	0.961 ± 0.026
[12], 37 nM	–	0.936 ± 0.025
[12], 111.1 nM	–	0.955 ± 0.046
[12], 333.3 nM	–	1.03 ± 0.055
[12], 1000 nM	–	0.978 ± 0.067
[12], 3000 nM	–	0.9675 ± 0.0049
[13], 4.1 nM	–	0.994 ± 0.06
[13], 12.3 nM	–	1.02 ± 0.011
[13], 37 nM	–	0.9516 ± 0.0082
[13], 111.1 nM	–	0.977 ± 0.056
[13], 333.3 nM	–	1.04 ± 0.048
[13], 1000 nM	–	0.995 ± 0.016
[13], 3000 nM	–	0.914 ± 0.1
[14], 4.1 nM	–	0.965 ± 0.016
[14], 12.3 nM	–	0.951 ± 0.14
[14], 37 nM	–	0.953 ± 0.047
[14], 111.1 nM	–	1.02 ± 0.14
[14], 333.3 nM	–	0.889 ± 0.083
[14], 1000 nM	–	1.04 ± 0.042
[14], 3000 nM	–	0.9 ± 0.021
